Reference: ChEMBL document CHEMBL1201862, “PubChem BioAssay data set” (2004)
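Following 48 hours of exposure in 96-well plates, responses at five concentrations were used to interpolate endpoints linearly. Abbreviation: GI50, concentration required for 50% inhibition of growth.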 Calls of active or inactive are those of the source. No stated cut-off is given here; in the data, active = GI50 up to about 1.1 µM and inactive = higher.

Assays:
Assay in all cases: inhibition of tumour cell growth, NCI panel, 48 h
A549 = tested on: A549
UACC-62 = tested on: UACC-62
T47D = tested on: T47D
HCT-15 = tested on: HCT-15
RXF 393 = tested on: RXF 393
SNB-75 = tested on: SNB-75
Malme-3M = tested on: Malme-3M
DU-145 = tested on: DU-145
NCI-H23 = tested on: NCI-H23
KM12 = tested on: KM12
LOX IMVI = tested on: LOX IMVI
IGROV-1 = tested on: IGROV-1
NCI/ADR-RES = tested on: NCI/ADR-RES
SF-268 = tested on: SF-268
CCRF-CEM = tested on: CCRF-CEM
NCI-H226 = tested on: NCI-H226
MDA-MB-231 = tested on: MDA-MB-231
A498 = tested on: A498
SF-539 = tested on: SF-539
UACC-257 = tested on: UACC-257

SMILES	GI50 (A549)	GI50 (UACC-62)	GI50 (T47D)	GI50 (HCT-15) [µM]	GI50 (RXF 393)	GI50 (SNB-75)	GI50 (Malme-3M)	GI50 (DU-145)	GI50 (NCI-H23)	GI50 (KM12)	GI50 (LOX IMVI)	GI50 (IGROV-1)	GI50 (NCI/ADR-RES)	GI50 (SF-268)	GI50 (CCRF-CEM)	GI50 (NCI-H226)	GI50 (MDA-MB-231)	GI50 (A498)	GI50 (SF-539)	GI50 (UACC-257)
O=C(O)CNC(=O)c1ccc([As](=O)(O)O)cc1	> 100 µM (inactive)	> 100 µM (inactive)	> 100 µM (inactive)	> 100	> 100 µM (inactive)	> 100 µM (inactive)	> 100 µM (inactive)	> 100 µM (inactive)	> 100 µM (inactive)	> 100 µM (inactive)	> 100 µM (inactive)	> 100 µM (inactive)	> 100 µM (inactive)	> 100 µM (inactive)	> 100 µM (inactive)	> 100 µM (inactive)	> 100 µM (inactive)	> 100 µM (inactive)		
Cc1ccc(C(=O)/C=C2\Nc3ccccc3NC2=O)cc1	4.94 µM (inactive)	2.26 µM (inactive)	2.65 µM (inactive)	56.6	2.42 µM (inactive)		2.48 µM (inactive)	4.69 µM (inactive)	8.05 µM (inactive)	17.1 µM (inactive)	7.94 µM (inactive)	1.07 µM (active)	5.13 µM (inactive)	5.96 µM (inactive)	99.1 µM (inactive)	1.65 µM (inactive)	2.78 µM (inactive)	20.5 µM (inactive)	4.78 µM (inactive)	12.4 µM (inactive)
CCOC1OC(CO)C(O)CC1n1ccc(=O)[nH]c1=O (centres undefined)	> 100 µM (inactive)	> 100 µM (inactive)	> 100 µM (inactive)	> 100	> 100 µM (inactive)	> 100 µM (inactive)	> 100 µM (inactive)	> 100 µM (inactive)	> 100 µM (inactive)	> 100 µM (inactive)	> 100 µM (inactive)	> 100 µM (inactive)	> 100 µM (inactive)	> 100 µM (inactive)		> 100 µM (inactive)	> 100 µM (inactive)	> 100 µM (inactive)	> 100 µM (inactive)	> 100 µM (inactive)
C=CCCCCOC1C=CC(O)C(CO)O1 (centres undefined)	> 100 µM (inactive)	> 100 µM (inactive)	> 100 µM (inactive)	> 100	> 100 µM (inactive)		> 100 µM (inactive)	> 100 µM (inactive)	> 100 µM (inactive)	> 100 µM (inactive)	> 100 µM (inactive)	> 100 µM (inactive)	> 100 µM (inactive)	> 100 µM (inactive)	> 100 µM (inactive)	> 100 µM (inactive)	> 100 µM (inactive)	> 100 µM (inactive)	> 100 µM (inactive)	> 100 µM (inactive)
Cn1c(N)nc(-c2ccc(Cl)cc2)c1SSc1c(-c2ccc(Cl)cc2)nc(N)n1C	12.8 µM (inactive)	2.3 µM (inactive)	2.28 µM (inactive)	1.77	2.43 µM (inactive)	7.67 µM (inactive)	2.3 µM (inactive)	12.8 µM (inactive)	1.63 µM (inactive)	1.85 µM (inactive)		2.99 µM (inactive)	2.1 µM (inactive)	2.77 µM (inactive)	2.44 µM (inactive)	37.2 µM (inactive)	1.4 µM (inactive)	14.3 µM (inactive)	1.71 µM (inactive)	2.04 µM (inactive)
Cc1ccnc2nc3[nH]c4ccccc4c3cc12	> 100 µM (inactive)	> 100 µM (inactive)	> 100 µM (inactive)	> 100	> 100 µM (inactive)	22 µM (inactive)		> 100 µM (inactive)	> 100 µM (inactive)	> 100 µM (inactive)	> 100 µM (inactive)	> 100 µM (inactive)	> 100 µM (inactive)	> 100 µM (inactive)	75 µM (inactive)	> 100 µM (inactive)	> 100 µM (inactive)	> 100 µM (inactive)	> 100 µM (inactive)	89.5 µM (inactive)
CSc1nc2c(c(N(C)C)n1)C=Nn1c(nc3ccccc31)S2	69 µM (inactive)	83 µM (inactive)	64.1 µM (inactive)	> 100	29 µM (inactive)	64.1 µM (inactive)	91 µM (inactive)	78 µM (inactive)	> 100 µM (inactive)	> 100 µM (inactive)	76.2 µM (inactive)	> 100 µM (inactive)	> 100 µM (inactive)	60.4 µM (inactive)		> 100 µM (inactive)	78.2 µM (inactive)	> 100 µM (inactive)		99.1 µM (inactive)
COC(=O)/C(C#N)=C(\Nc1ccccc1)N1CCCC1	> 100 µM (inactive)		> 100 µM (inactive)	> 100	> 100 µM (inactive)	> 100 µM (inactive)	> 100 µM (inactive)	> 100 µM (inactive)	> 100 µM (inactive)		> 100 µM (inactive)	> 100 µM (inactive)	> 100 µM (inactive)	> 100 µM (inactive)		> 100 µM (inactive)	> 100 µM (inactive)	> 100 µM (inactive)	> 100 µM (inactive)	> 100 µM (inactive)
C#CCNCC(=O)O	> 100 µM (inactive)	> 100 µM (inactive)	> 100 µM (inactive)	> 100	> 100 µM (inactive)		> 100 µM (inactive)	> 100 µM (inactive)	> 100 µM (inactive)	> 100 µM (inactive)		> 100 µM (inactive)	> 100 µM (inactive)	> 100 µM (inactive)	> 100 µM (inactive)	> 100 µM (inactive)	> 100 µM (inactive)	> 100 µM (inactive)	> 100 µM (inactive)	> 100 µM (inactive)
O=C(Nc1c(C(F)(F)F)cc(-c2ccccc2)[nH]c1=O)N1CCOCC1	79.1 µM (inactive)	> 100 µM (inactive)	> 100 µM (inactive)	> 100	> 100 µM (inactive)	> 100 µM (inactive)	> 100 µM (inactive)	> 100 µM (inactive)	> 100 µM (inactive)	> 100 µM (inactive)	> 100 µM (inactive)	> 100 µM (inactive)	> 100 µM (inactive)	> 100 µM (inactive)	46.3 µM (inactive)	> 100 µM (inactive)	> 100 µM (inactive)	> 100 µM (inactive)		78.3 µM (inactive)
C/C(=N\Nc1nc2ccccc2o1)c1cccc[n+]1[O-]	24.5 µM (inactive)	46.1 µM (inactive)	2.89 µM (inactive)	4.88	24.6 µM (inactive)		2.27 µM (inactive)	27.8 µM (inactive)	26.6 µM (inactive)	23.2 µM (inactive)	13.4 µM (inactive)	16.1 µM (inactive)	3.6 µM (inactive)	19.1 µM (inactive)	4.3 µM (inactive)	45.7 µM (inactive)	60.3 µM (inactive)	45.1 µM (inactive)	23.4 µM (inactive)	13 µM (inactive)
